{"source": "paper PMC4306947", "about": "“Synthesis and Antiproliferative Activity of Thiazolyl-bis-pyrrolo[2,3-b]pyridines and Indolyl-thiazolyl-pyrrolo[2,3-c]pyridines, Nortopsentin Analogues” (Marine Drugs, 2015)", "key": {"SK-MEL-28": {"system": "SK-MEL-28", "assay": "NCI-60 in vitro tumor cell screen, SK-MEL-28", "assay_type": "cell-based", "settings": "Homo sapiens; SK-MEL-28, Melanoma", "procedure": "(§1) All the synthesized thiazoles 1a–l, 2a–j, 3a–f and 4a–f were evaluated by the National Cancer Institute (Bethesda MD) for cytotoxicity against the NCI-60 cell line panel using standard protocols. Initially, all derivatives were tested at a single dose (10^−5 M) on the full panel of approximately 60 human tumor cell lines derived from 9 human cancer cell types, that have been grouped in disease sub-panels including leukemia, non-small-cell lung, colon, central nervous system (CNS), melanoma, ovarian, renal, prostate and breast cancers (data not shown). Compounds 1k and 4c were further selected for full evaluation at five concentration levels (10^−4–10^−8 M).\n(§2) The antitumor activity of compounds 1k and 4c was given by three parameters for each cell line: GI50 (GI50 is the molar concentration of the compound that inhibits 50% net cell growth), TGI (TGI is the molar concentration of the compound leading to total inhibition of net cell growth), and LC50 (LC50 is the molar concentration of the compound that induces 50% net cell death). The average values of mean graph midpoint (MG_MID) were calculated for each of these parameters."}, "A498": {"system": "A498", "assay": "NCI-60 in vitro tumor cell screen, A498", "assay_type": "cell-based", "settings": "Homo sapiens; A498, Renal Cancer", "procedure": "as §1, §2"}, "NCI-H23": {"system": "NCI-H23", "assay": "NCI-60 in vitro tumor cell screen, NCI-H23", "assay_type": "cell-based", "settings": "Homo sapiens; NCI-H23, Non-Small Cell Lung Cancer", "procedure": "as §1, §2"}, "HCT-116 cells": {"system": "HCT-116 cells", "assay": "Acidic vesicular organelles by acridine orange staining (FACS)", "assay_type": "cell-based, human", "settings": "24 h", "procedure": "AO is a fluorescent molecule used either to identify apoptotic cell death or autophagy. It can interact with DNA emitting green fluorescence or accumulate in acidic organelles where it is protonated forming aggregates that emit bright red fluorescence. Briefly, cells were stained with a AO solution (5 μg/mL) for 15 min. Then they were washed, re-suspended in PBS and subjected to FACS analysis. The green (510–530 nm, FL-1) and red (650 nm, FL-3) fluorescence of AO with blue (488 nm) excitation was determined over 10,000 events."}, "NCI-H322M": {"system": "NCI-H322M", "assay": "NCI-60 in vitro tumor cell screen, NCI-H322M", "assay_type": "cell-based", "settings": "Homo sapiens, Non-Small Cell Lung Cancer", "procedure": "as §1, §2"}, "SR": {"system": "SR", "assay": "NCI-60 in vitro tumor cell screen, SR", "assay_type": "cell-based", "settings": "Homo sapiens, Leukemia", "procedure": "as §1, §2"}, "UACC-257": {"system": "UACC-257", "assay": "NCI-60 in vitro tumor cell screen, UACC-257", "assay_type": "cell-based", "settings": "Homo sapiens; UACC-257, Melanoma", "procedure": "as §1, §2"}, "RXF393": {"system": "RXF393", "assay": "NCI-60 in vitro tumor cell screen, RXF393", "assay_type": "cell-based", "settings": "Homo sapiens, RXF 393; RXF393, Renal Cancer", "procedure": "as §1, §2"}, "PC-3": {"system": "PC-3", "assay": "NCI-60 in vitro tumor cell screen, PC-3", "assay_type": "cell-based", "settings": "Homo sapiens; PC-3, Prostate Cancer", "procedure": "as §1, §2"}, "UO-31": {"system": "UO-31", "assay": "NCI-60 in vitro tumor cell screen, UO-31", "assay_type": "cell-based", "settings": "Homo sapiens; UO-31, Renal Cancer", "procedure": "as §1, §2"}, "SN12C": {"system": "SN12C", "assay": "NCI-60 in vitro tumor cell screen, SN12C", "assay_type": "cell-based", "settings": "Homo sapiens, Renal Cancer", "procedure": "as §1, §2"}, "NCI-H522": {"system": "NCI-H522", "assay": "NCI-60 in vitro tumor cell screen, NCI-H522", "assay_type": "cell-based", "settings": "Homo sapiens; NCI-H522, Non-Small Cell Lung Cancer", "procedure": "as §1, §2"}, "MDA-MB-231/ATCC": {"system": "MDA-MB-231/ATCC", "assay": "NCI-60 in vitro tumor cell screen, MDA-MB-231/ATCC", "assay_type": "cell-based", "settings": "Homo sapiens, Breast Cancer", "procedure": "as §1, §2"}, "COLO-205": {"system": "COLO-205", "assay": "NCI-60 in vitro tumor cell screen, COLO-205", "assay_type": "cell-based", "settings": "Homo sapiens; COLO-205, Colon Cancer", "procedure": "as §1, §2"}, "MALME-3M": {"system": "MALME-3M", "assay": "NCI-60 in vitro tumor cell screen, MALME-3M", "assay_type": "cell-based", "settings": "Homo sapiens, Melanoma", "procedure": "as §1, §2"}}, "data": [{"smiles": "Clc1nccc2c(-c3csc(-c4c[nH]c5ccc(Br)cc45)n3)c[nH]c12", "note": "[Compound 4c, 3-[2-(5-Bromo-1H-indol-3-yl)-1,3-thiazol-4-yl]-7-chloro-1H-pyrrolo[2,3-c]pyridine]", "values": [{"measurement": "GI50", "setting": "SK-MEL-28", "result": 1850, "unit": "nM"}, {"measurement": "GI50", "setting": "A498", "result": 1560, "unit": "nM"}, {"measurement": "GI50", "setting": "NCI-H23", "result": 2420, "unit": "nM"}, {"measurement": "increase of the bright red to green fluorescence intensity ratio of acridine orange", "setting": "HCT-116 cells; concentration GI30, vs control", "result": 10, "unit": "fold"}, {"measurement": "percent of cells with AVO with respect to control", "setting": "HCT-116 cells; highest drug concentration", "result": "did not significantly modify"}, {"measurement": "GI50", "setting": "NCI-H322M", "result": 3540, "unit": "nM"}, {"measurement": "GI50", "setting": "SR", "result": 1270, "unit": "nM"}, {"measurement": "GI50", "setting": "UACC-257", "result": 2680, "unit": "nM"}, {"measurement": "GI50", "setting": "RXF393", "result": 1480, "unit": "nM"}, {"measurement": "GI50", "setting": "PC-3", "result": 3860, "unit": "nM"}, {"measurement": "GI50", "setting": "UO-31", "result": 930, "unit": "nM"}, {"measurement": "GI50", "setting": "SN12C", "result": 3350, "unit": "nM"}, {"measurement": "GI50", "setting": "NCI-H522", "result": 2280, "unit": "nM"}, {"measurement": "GI50", "setting": "MDA-MB-231/ATCC", "result": 1680, "unit": "nM"}, {"measurement": "GI50", "setting": "COLO-205", "result": 1800, "unit": "nM"}]}, {"smiles": "Cn1cc(-c2csc(-c3c[nH]c4ncccc34)n2)c2cc(Br)cnc21", "note": "[Compound 1k, 5-Bromo-1-methyl-3-[2-(1H-pyrrolo[2,3-b]pyridin-3-yl)-1,3-thiazol-4-yl]-1H-pyrrolo[2,3-b]pyridine]", "values": [{"measurement": "GI50", "setting": "A498", "result": 10900, "unit": "nM"}, {"measurement": "GI50", "setting": "MALME-3M", "result": 3010, "unit": "nM"}, {"measurement": "GI50", "setting": "NCI-H23", "result": 2800, "unit": "nM"}, {"measurement": "GI50", "setting": "NCI-H322M", "result": "> 100000", "unit": "nM"}, {"measurement": "GI50", "setting": "RXF393", "result": 2050, "unit": "nM"}, {"measurement": "GI50", "setting": "PC-3", "result": 4350, "unit": "nM"}, {"measurement": "GI50", "setting": "NCI-H522", "result": 4860, "unit": "nM"}, {"measurement": "GI50", "setting": "MDA-MB-231/ATCC", "result": 3020, "unit": "nM"}]}]}
